The source of these data is patent publication US7361687B2, “Arylsulphonamide derivatives and methods of preparing” (Laboratoires Fournier SA, priority 2002, dated 2008).

The test system of one series is formalin-induced pain response in mice. Put plainly: formalin-induced pain response test in mice. Type of series: in vivo. Particulars: formalin 0.92% in hind paw, licking time 15 to 30 min after injection, dose 1 mg/kg i.v. On the procedure:
The compounds of the present invention were evaluated for their analgesic properties in the formalin-induced pain response test in mice (Shibata, M., Ohkubo, T., Takahashi, H. & R. Inoki. Modified formalin test: characteristic biphasic pain response. Pain, 38, 347-352). To summarize, formalin (0.92% in saline solution) is injected into the hind paw and the paw licking time, which reflects pain intensity, is recorded from 0 to 5 min (1st phase) and from 15 to 30 min (2nd phase) after injection.
For “N-[[4-(4,5-dihydro-1H-imidazol-2-yl)phenyl]methyl]-2-[2-[[(4-methoxy-2,6-dimethylphenyl)sulphonyl]methylamino]ethoxy]-N-methyl-acetamide, trifluoroacetate [Example 49]”, the “% inhibition of the 2nd paw licking phase” value (from here on “% inhibition”) worked out at 40%.

Staying with this series, now noted: formalin 0.92% in hind paw, licking time 15 to 30 min after injection, dose 10 mg/kg i.p.
With `Cc1c(Cl)ccc(S(=O)(=O)N(CCCCC(=O)N(C)Cc2ccc(C3=NCCN3)cc2)CC(N)=O)c1Cl.O=C(O)C(F)(F)F` [Example 19, 5-[(2-amino-2-oxoethyl)[(2,4-dichloro-3-methylphenyl)sulphonyl]-amino]-N-[[4-(4,5-dihydro-1H-imidazol-2-yl)phenyl]methyl]-N-methyl-pentanamide, trifluoroacetate], the “% inhibition” value worked out at 42%.

The same series, now with this note: formalin 0.92% in hind paw, licking time 15 to 30 min after injection, dose 100 mg/kg p.o.
For the compound “5-[[(2,3-dichlorophenyl)sulphonyl]methylamino]-N-[[4-(4,5-dihydro-1H-imidazol-2-yl)phenyl]methyl]-N-methyl-pentanamide, trifluoroacetate [Example 9]”, the “% inhibition” value came to 60%.

Regarding `CN(Cc1ccc(C2=NCCN2)cc1)C(=O)CCCCN(C1CC1)S(=O)(=O)c1cccc(Cl)c1Cl.O=C(O)C(F)(F)F` [Example 16, 5-[cyclopropyl[(2,3-dichlorophenyl)sulphonyl]amino]-N-[[4-(4,5-dihydro-1H-imidazol-2-yl)phenyl]methyl]-N-methyl-pentanamide, trifluoroacetate], the “% inhibition” value was determined as 80%.

System in another series: not given
Experiment: not given
Conditions: not given
In turn, `CN(Cc1ccc(C2=NCCN2)cc1)C(=O)/C=C/CN(C)S(=O)(=O)c1ccc(OC(F)(F)F)cc1Cl.O=C(O)C(F)(F)F` registered a melting point of 68 °C.

In turn, `CN(Cc1ccc(C2=NCCN2)cc1)C(=O)/C=C/CN(C)S(=O)(=O)c1cccc2ccccc12.O=C(O)C(F)(F)F` gave a melting point of 77 °C.

Compound `CN(Cc1ccc(C2=NCCN2)cc1)C(=O)CCCCN(C1CC1)S(=O)(=O)c1ccccc1Cl.O=C(O)C(F)(F)F` registered a melting point of 55 °C.

Turning to `CC(C)N(CCCCC(=O)N(C)Cc1ccc(C2=NCCN2)cc1)S(=O)(=O)c1c(Cl)cccc1Cl.O=C(O)C(F)(F)F`, the melting point worked out at 60 °C.

`Cc1c(Cl)ccc(S(=O)(=O)N(CCCCC(=O)N(C)Cc2ccc(C3=NCCN3)cc2)CCC(N)=O)c1Cl.O=C(O)C(F)(F)F` showed a melting point of 85 °C.

In the case of `CC(C)N(CCC(=O)N(C)Cc1ccc(C2=NCCN2)cc1)S(=O)(=O)c1cccc(Cl)c1Cl.O=C(O)C(F)(F)F`, the melting point worked out at 92 °C.

Compound `CC(C)N(CCC(=O)N(C)Cc1ccc(C2=NCCN2)cc1)S(=O)(=O)c1c(Cl)cccc1Cl.O=C(O)C(F)(F)F` displayed a melting point of 75 °C.

In turn, `CN(Cc1ccc(C2=NCCN2)cc1)C(=O)COCCN(C1CC1)S(=O)(=O)c1ccccc1Cl.O=C(O)C(F)(F)F` came in with a melting point of 52 °C.

As to `CN(Cc1ccc(C2=NCCN2)cc1)C(=O)COCCN(C1CC1)S(=O)(=O)c1cccc(Cl)c1Cl.O=C(O)C(F)(F)F`, the melting point amounted to 65 °C.

The compound `CN(Cc1ccc(C2=NCCN2)cc1)C(=O)COCCN(C1CC1)S(=O)(=O)c1c(Cl)cccc1Cl.O=C(O)C(F)(F)F` registered a melting point of 60 °C.

Regarding `Cc1c(Cl)ccc(S(=O)(=O)N(CCOCC(=O)N(C)Cc2ccc(C3=NCCN3)cc2)CCc2ccccc2)c1Cl.O=C(O)C(F)(F)F`, the melting point stood at 85 °C.

The compound `CN(Cc1ccc(C2=NCCN2)cc1)C(=O)CCN(C1CC1)S(=O)(=O)c1cccc(Cl)c1Cl.O=C(O)C(F)(F)F` registered a melting point of 80 °C.

Consider `CN(Cc1ccc(C2=NCCN2)cc1)C(=O)CCN(C1CC1)S(=O)(=O)c1c(Cl)cccc1Cl.O=C(O)C(F)(F)F`, for which the melting point came to 65 °C.

`CN(Cc1ccc(C2=NCCN2)cc1)C(=O)CCN(CC(F)(F)F)S(=O)(=O)c1cccc(Cl)c1Cl.O=C(O)C(F)(F)F` displayed a melting point of 88 °C.

As to `CN(Cc1ccc(C2=NCCN2)cc1)C(=O)CCN(CC(F)(F)F)S(=O)(=O)c1c(Cl)cccc1Cl.O=C(O)C(F)(F)F`, the melting point was 80 °C.

In turn, `CN(Cc1ccc(C2=NCCN2)cc1)C(=O)/C=C/CN(C)S(=O)(=O)c1ccccc1C(F)(F)F.O=C(O)C(F)(F)F` showed a melting point of 50 °C.

The compound `Cc1c(Cl)ccc(S(=O)(=O)NC/C=C/C(=O)N(C)Cc2ccc(C3=NCCN3)cc2)c1Cl.O=C(O)C(F)(F)F` yielded a melting point of 99 °C.

Compound `CN(Cc1ccc(C2=NCCN2)cc1)C(=O)COCCN(C)S(=O)(=O)c1ccccc1C(F)(F)F.O=C(O)C(F)(F)F` showed a melting point of 60 °C.

`CN(Cc1ccc(C2=NCCN2)cc1)C(=O)COCCN(C)S(=O)(=O)c1c(Cl)cc(C(F)(F)F)cc1Cl.O=C(O)C(F)(F)F` returned a melting point of 60 °C.

`CN(Cc1ccc(C2=NCCN2)cc1)C(=O)COCCN(C)S(=O)(=O)c1ccc(Cl)c(Cl)c1Cl.O=C(O)C(F)(F)F` registered a melting point of 70 °C.

`CN(Cc1ccc(C2=NCCN2)cc1)C(=O)COCCN(C)S(=O)(=O)c1cccc2ccccc12.O=C(O)C(F)(F)F`: the melting point was found to be 66 °C.

`CN(Cc1ccc(C2=NCCN2)cc1)C(=O)COCCN(C)S(=O)(=O)c1cccc(C(F)(F)F)c1.O=C(O)C(F)(F)F` returned a melting point of 60 °C.

For the compound `CN(Cc1ccc(C2=NCCN2)cc1)C(=O)CCCCN(C1CC1)S(=O)(=O)c1cccc(Cl)c1Cl.O=C(O)C(F)(F)F` [Example 16, 5-[cyclopropyl[(2,3-dichlorophenyl)sulphonyl]amino]-N-[[4-(4,5-dihydro-1H-imidazol-2-yl)phenyl]methyl]-N-methyl-pentanamide, trifluoroacetate], the melting point amounted to 70 °C.

Consider `Cc1c(Cl)ccc(S(=O)(=O)N(CCCCC(=O)N(C)Cc2ccc(C3=NCCN3)cc2)CC(N)=O)c1Cl.O=C(O)C(F)(F)F` [Example 19, 5-[(2-amino-2-oxoethyl)[(2,4-dichloro-3-methylphenyl)sulphonyl]-amino]-N-[[4-(4,5-dihydro-1H-imidazol-2-yl)phenyl]methyl]-N-methyl-pentanamide, trifluoroacetate], for which the melting point was determined as 90 °C.
